Source: patent US10233182B2, “Substituted spirocyclic inhibitors of autotaxin” (X-Rx, Inc., priority 2014, dated 2019)
Structures can show the parent of a compound that is named as a salt.

Target: Autotaxin (Homo sapiens (Human), UniProt Q13822)
Test: Autotaxin LPC Cascade Assay
Type: biochemical
Details: Autotaxin 5 nM, LPC 100 μM, choline oxidase/HRP/Ampliflu Red fluorescence read-out, 2% DMSO, RT; read-out: IC50 ATX Activity
Summary of the method: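 Choline liberated from LPC by autotaxin during 1 h, after a 10-min RT compound preincubation, was converted through choline oxidase/HRP to a fluorescent Ampliflu Red product.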

`CC(C)[C@@H](NC(=O)c1cc(C(F)(F)F)ccc1F)C(=O)N1CCC2(CC1)C(=O)N(C)CN2c1ccc(-c2nn[nH]n2)cc1` [Example 227, (R)—N-(1-(1-(4-(2H-Tetrazol-5-yl)phenyl)-3-methyl-4-oxo-1,3,8-triazaspiro[4.5]decan-8-yl)-3-methyl-1-oxobutan-2-yl)-2-fluoro-5-(trifluoromethyl)benzamide] and `CC(C)[C@@H](NC(=O)c1cc(C(F)(F)F)ccc1F)C(=O)N1CCC2(CC1)C(=O)N(CCN(C)C)CN2c1ccc(C(=O)O)cc1` [Example 238, (R)-4-(3-(2-(Dimethylamino)ethyl)-8-(2-(2-fluoro-5-(trifluoromethyl)benzamido)-3-methylbutanoyl)-4-oxo-1,3,8-triazaspiro[4.5]decan-1-yl)benzoic Acid trifluoroacetic Acid Salt] cannot be ordered by IC50: < 0.5 µM for the first, < 0.5 µM for the second.

`CC(C)[C@@H](NC(=O)c1ccccn1)C(=O)N1CCC2(CC1)C(=O)N(C)C(=O)N2c1ccc2[nH]ncc2c1` [Example 228, (R)—N-(1-(1-(1H-Indazol-5-yl)-3-methyl-2,4-dioxo-1,3,8-triazaspiro[4.5]decan-8-yl)-3-methyl-1-oxobutan-2-yl)picolinamide] and `CC(C)[C@@H](NC(=O)c1cccnc1)C(=O)N1CCC2(CC1)C(=O)N(C)C(=O)N2c1ccc2[nH]ncc2c1` [Example 229, (R)—N-(1-(1-(1H-Indazol-5-yl)-3-methyl-2,4-dioxo-1,3,8-triazaspiro[4.5]decan-8-yl)-3-methyl-1-oxobutan-2-yl)nicotinamide] cannot be ordered by IC50: ≥ 1 µM for the first, ≥ 1 µM for the second.

`CC(C)[C@@H](NC(=O)C1CCCCC1)C(=O)N1CCC2(CC1)C(=O)N(C)C(=O)N2c1ccc2[nH]ncc2c1` [Example 230, (R)—N-(1-(1-(1H-Indazol-5-yl)-3-methyl-2,4-dioxo-1,3,8-triazaspiro[4.5]decan-8-yl)-3-methyl-1-oxobutan-2-yl)cyclohexanecarboxamide] and `CC(C)[C@@H](NC(=O)C(C)(C)C)C(=O)N1CCC2(CC1)C(=O)N(C)C(=O)N2c1ccc2[nH]ncc2c1` [Example 232, (R)—N-(1-(1-(1H-Indazol-5-yl)-3-methyl-2,4-dioxo-1,3,8-triazaspiro[4.5]decan-8-yl)-3-methyl-1-oxobutan-2-yl)pivalamide] cannot be ordered by IC50: ≥ 1 µM for the first, ≥ 1 µM for the second.

`CC(C)[C@@H](NC(=O)c1ccncc1)C(=O)N1CCC2(CC1)C(=O)N(C)C(=O)N2c1ccc2[nH]ncc2c1` [Example 231, (R)—N-(1-(1-(1H-Indazol-5-yl)-3-methyl-2,4-dioxo-1,3,8-triazaspiro[4.5]decan-8-yl)-3-methyl-1-oxobutan-2-yl)isonicotinamide] and `CC(C)[C@@H](NC(=O)c1ccccc1)C(=O)N1CCC2(CC1)C(=O)N(C)C(=O)N2c1ccc2[nH]ncc2c1` [Example 233, (R)—N-(1-(1-(1H-Indazol-5-yl)-3-methyl-2,4-dioxo-1,3,8-triazaspiro[4.5]decan-8-yl)-3-methyl-1-oxobutan-2-yl)benzamide] cannot be ordered by IC50: ≥ 1 µM for the first, ≥ 1 µM for the second.

`CC(C)[C@@H](NC(=O)c1nccs1)C(=O)N1CCC2(CC1)C(=O)N(C)C(=O)N2c1ccc2[nH]ncc2c1` [Example 234, (R)—N-(1-(1-(1H-Indazol-5-yl)-3-methyl-2,4-dioxo-1,3,8-triazaspiro[4.5]decan-8-yl)-3-methyl-1-oxobutan-2-yl)thiazole-2-carboxamide] and `CC(C)[C@@H](NC(=O)c1nc(C(F)(F)F)cs1)C(=O)N1CCC2(CC1)C(=O)N(C)C(=O)N2c1ccc2[nH]ncc2c1` [Example 235, (R)—N-(1-(1-(1H-Indazol-5-yl)-3-methyl-2,4-dioxo-1,3,8-triazaspiro[4.5]decan-8-yl)-3-methyl-1-oxobutan-2-yl)-4-(trifluoromethyl)thiazole-2-carboxamide] cannot be ordered by IC50: ≥ 1 µM for the first, ≥ 1 µM for the second.

Going from `CC(C)[C@H](C(=O)N1CCC2(CC1)C(=O)N(C)C(=O)N2c1ccc2[nH]ncc2c1)N(C)C(=O)c1cc(C(F)(F)F)ccc1F` [Example 236, (R)—N-(1-(1-(1H-Indazol-5-yl)-3-methyl-2,4-dioxo-1,3,8-triazaspiro[4.5]decan-8-yl)-3-methyl-1-oxobutan-2-yl)-2-fluoro-N-methyl-5-(trifluoromethyl)benzamide] to `Cc1nc2cc(N3C(=O)N(C)C(=O)C34CCN(C(=O)[C@H](NC(=O)c3cc(C(F)(F)F)ccc3F)C(C)C)CC4)ccc2o1` [Example 246, (R)—N-(1-(1-(2-Methylbenzo[d]oxazol-5-yl)-3-methyl-2,4-dioxo-1,3,8-triazaspiro[4.5]decan-8-yl)-3-methyl-1-oxobutan-2-yl)-2-fluoro-5-(trifluoromethyl)benzamide], the IC50 falls from ≥ 1 µM to < 0.5 µM.

`CC(C)[C@@H](NC(=O)c1cc(C(F)(F)F)ccc1F)C(=O)N1CCC2(CC1)C(=O)N(CCN(C)C)C(=O)N2c1ccc(C(=O)O)cc1` [Example 237, (R)-4-(3-(2-(Dimethylamino)ethyl)-8-(2-(2-fluoro-5-(trifluoromethyl)benzamido)-3-methylbutanoyl)-2,4-dioxo-1,3,8-triazaspiro[4.5]decan-1-yl)benzoic Acid trifluoroacetic Acid Salt] and `CC(C)[C@@H](NC(=O)c1cc(C(F)(F)F)ccc1F)C(=O)N1CCC2(CC1)C(=O)N(C)C(=O)N2c1ccncc1` [Example 239, (R)-2-Fluoro-N-(3-methyl-1-(3-methyl-2,4-dioxo-1-(pyridin-4-yl)-1,3,8-triazaspiro[4.5]decan-8-yl)-1-oxobutan-2-yl)-5-(trifluoromethyl)benzamide] cannot be ordered by IC50: < 0.5 µM for the first, < 0.5 µM for the second.

Compared with `CC(C)[C@@H](NC(=O)c1cc(C(F)(F)F)ccc1F)C(=O)N1CCC2(CC1)C(=O)N(C)C(=O)N2c1cc[n+]([O-])cc1` [Example 240, (R)-4-(8-(2-(2-Fluoro-5-(trifluoromethyl)benzamido)-3-methylbutanoy)-3-methyl-2,4-dioxo-1,3,8-triazaspiro[4.5]decan-1-yl)pyridine 1-oxide], `CC(C)[C@@H](NC(=O)c1cc(C(F)(F)F)ccc1F)C(=O)N1CCC2(CC1)C(=O)N(C)C(=O)N2c1ccc2ocnc2c1` [Example 245, (R)—N-(1-(1-(Benzo[d]oxazol-5-yl)-3-methyl-2,4-dioxo-1,3,8-triazaspiro[4.5]decan-8-yl)-3-methyl-1-oxobutan-2-yl)-2-fluoro-5-(trifluoromethyl)benzamide] is lower in IC50: ≥ 1 µM for the first, < 0.5 µM for the second.

First: COC1CCC(N2C(=O)N(C)C(=O)C23CCN(C(=O)[C@H](NC(=O)c2cc(C(F)(F)F)ccc2F)C(C)C)CC3)CC1 (stereo partly drawn) [Example 241, (R)-2-Fluoro-N-(1-(1-(4-methoxycyclohexyl)-3-methyl-2,4-dioxo-1,3,8-triazaspiro[4.5]decan-8-yl)-3-methyl-1-oxobutan-2-yl)-5-(trifluoromethyl)benzamide]
Second: CC(C)[C@@H](NC(=O)c1cc(C(F)(F)F)ccc1F)C(=O)N1CCC2(CC1)C(=O)N(C)C(=O)N2C1CCCCC1 [Example 242, (R)—N-(1-(1-Cyclohexyl-3-methyl-2,4-dioxo-1,3,8-triazaspiro[4.5]decan-8-yl)-3-methyl-1-oxobutan-2-yl)-2-fluoro-5-(trifluoromethyl)benzamide]
The IC50 of the first is higher: ≥ 1 µM for the first, < 0.5 µM for the second.
